ChEMBL document CHEMBL6127089, “Novel non-peptide uracil-derived human gonadotropin-releasing hormone receptor antagonists” (Eur J Med Chem, 2024)

Molecular target: T1, Gonadotropin-releasing hormone receptor (Homo sapiens, UniProt P30968)
T1 sequence (P30968 whole entry): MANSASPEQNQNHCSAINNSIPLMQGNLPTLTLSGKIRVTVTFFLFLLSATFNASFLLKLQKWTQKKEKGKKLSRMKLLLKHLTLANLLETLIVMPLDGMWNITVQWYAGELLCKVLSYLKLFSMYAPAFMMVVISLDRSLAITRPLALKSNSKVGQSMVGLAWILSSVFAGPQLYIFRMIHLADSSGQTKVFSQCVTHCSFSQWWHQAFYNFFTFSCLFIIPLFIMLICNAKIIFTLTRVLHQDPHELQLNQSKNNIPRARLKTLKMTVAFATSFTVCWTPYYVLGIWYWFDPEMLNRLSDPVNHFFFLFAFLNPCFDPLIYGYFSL
Assay: Antagonist activity at wild type HA-tagged human GnRH1 receptor expressed in HEK293T cells assessed as inhibition of GnRH peptide-stimulated IP1 accumulation by measuring GnRH peptide EC50 at 100 uM pretreated for 1 hr followed by stimulation with GnRH peptide for 1 hr (reference value: 2.5 nM)
Type: cell-based

EC50 [nM] | Structure (SMILES)
39 | COc1cccc(-c2c(N[C@@H](CSCCCC(=O)O)c3ccccc3)nc(=O)n(Cc3c(F)cccc3C(F)(F)F)c2C)c1F
110 | COc1cccc(-c2c(SC[C@H](NCCCC(=O)O)c3ccccc3)nc(=O)n(Cc3c(F)cccc3C(F)(F)F)c2C)c1F
0.6 | COc1cccc(-c2c(C)n(Cc3c(F)cccc3C(F)(F)F)c(=O)n(C[C@H](NCCCC(=O)O)c3ccccc3)c2=O)c1F [ELAGOLIX]
